Values quoted from earlier work in patent publication US20040242457A1, “Use of anti-glaucoma drugs to treat visual defects associated with the use of a GABAergic agent” (priority 2003, published 2004).

Conditions: reports from the literature

C=CC(N)CCC(=O)O (racemic) [GVG, 4-amino-hex-5-enoic acid]
patients treated with GVG who develop visual field defects (VFDs): 25-50%
